Test results published in PubChem BioAssay AID330 (DTP/NCI, 2004).
Several values for one entry are separate records, joined by “and”; a condition that tells them apart may be missing. Equal entries are not always repeated. Inconclusive results and toxic doses are left out.

Test system: P388 leukemia ip, CD2F1 mice, survival T/C
Assay: NCI In Vivo Anticancer Drug Screen. Data for tumor model P388 Leukemia (intraperitoneal) in CD2F1 (CDF1) mice
Details: endpoint: median survival time, higher = longer survival
Procedure, shortened: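 Mice carrying the transplanted tumor received test compound or vehicle. Survival was recorded in each group, and the value is the treated-group measurement divided by that of the vehicle-treated control group.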

[1] = dose: 50.0 mg/kg/injection, schedule: Q04DX002 (ip), vehicle: saline
[2] = dose: 100.0 mg/kg/injection, schedule: Q04DX002 (ip), vehicle: saline
[3] = dose: 60.0 mg/kg/injection, schedule: Q01DX005 (ip), vehicle: saline with Tween-80
[4] = dose: 120.0 mg/kg/injection, schedule: Q01DX005 (ip), vehicle: saline with Tween-80
[5] = dose: 240.0 mg/kg/injection, schedule: Q01DX005 (ip), vehicle: saline with Tween-80
[6] = dose: 100.0 mg/kg/injection, schedule: Q01DX009 (ip), vehicle: Klucel (hydroxypropylcellulose) (HPC)
[7] = dose: 200.0 mg/kg/injection, schedule: Q01DX009 (ip), vehicle: Klucel (hydroxypropylcellulose) (HPC)

`NC(=O)c1cncn1C1OCC(O)C(O)C1O` (centres undefined) was tested, and the T/C (dose: 60.0 mg/kg/injection, schedule: Q01DX005 (ip), vehicle: saline) was 96 % of control, the T/C (dose: 120.0 mg/kg/injection, schedule: Q01DX005 (ip), vehicle: saline) was 94 % of control and the T/C (dose: 240.0 mg/kg/injection, schedule: Q01DX005 (ip), vehicle: saline) was 91 % of control.

With `COc1cc2c(c3c1c(=S)c1ccccc1n3C)C=CC(C)(C)O2` the T/C (dose: 50.0 mg/kg/injection, schedule: Q01DX005 (ip), vehicle: Klucel (hydroxypropylcellulose) (HPC)) was 98 % of control, the T/C (dose: 100.0 mg/kg/injection, schedule: Q01DX005 (ip), vehicle: Klucel (hydroxypropylcellulose) (HPC)) was 98 % of control and the T/C (dose: 200.0 mg/kg/injection, schedule: Q01DX005 (ip), vehicle: Klucel (hydroxypropylcellulose) (HPC)) was 108 % of control.

`O=C1CSC(=S)N1/N=C/c1ccccc1` was tested, and the T/C (dose: 25.0 mg/kg/injection, schedule: Q04DX002 (ip), vehicle: saline) was 100 % of control, the T/C [1] was 105 % of control and the T/C [2] was 98 % of control.

With `COC(=O)CC1(C(=O)OC)c2ccc3ccccc3c2N2CCCC21` (centres undefined) the T/C (dose: 100.0 mg/kg/injection, schedule: Q01DX001 (ip), vehicle: saline) was 102 % of control, the T/C (dose: 200.0 mg/kg/injection, schedule: Q01DX001 (ip), vehicle: saline) was 100 % of control and the T/C (dose: 400.0 mg/kg/injection, schedule: Q01DX001 (ip), vehicle: saline) was 100 % of control.

For `CC/C(C=O)=C\NC(=O)Nc1ccccc1`, the T/C (dose: 100.0 mg/kg/injection, schedule: Q01DX001 (ip), vehicle: saline with Tween-80) was 97 % of control, the T/C (dose: 200.0 mg/kg/injection, schedule: Q01DX001 (ip), vehicle: saline with Tween-80) was 101 % of control and the T/C (dose: 400.0 mg/kg/injection, schedule: Q01DX001 (ip), vehicle: saline with Tween-80) was 98 % of control.

With `CC(=O)OCc1ccc2ccccc2c1` the T/C (dose: 100.0 mg/kg/injection, schedule: Q01DX009 (ip), vehicle: saline sonified) was 100 % of control, the T/C (dose: 200.0 mg/kg/injection, schedule: Q01DX009 (ip), vehicle: saline sonified) was 100 % of control and the T/C (dose: 400.0 mg/kg/injection, schedule: Q01DX009 (ip), vehicle: saline sonified) was 100 % of control.

`CN1CC(C(=O)O)=Nc2c1nc(N)[nH]c2=O` was tested, and the T/C (dose: 6.25 mg/kg/injection, schedule: Q01DX009 (ip), vehicle: saline with Tween-80) was 101 % of control, the T/C (dose: 12.5 mg/kg/injection, schedule: Q01DX009 (ip), vehicle: saline with Tween-80) was 109 % of control and the T/C (dose: 25.0 mg/kg/injection, schedule: Q01DX009 (ip), vehicle: saline with Tween-80) was 101 % of control.

In the case of `CCOC(=S)SCC(=O)C1(O)Cc2c(O)c3c(c(O)c2C(OC2CC(N)C(O)C(C)O2)C1)C(=O)c1c(OC)cccc1C3=O` (centres undefined), the T/C (dose: 1.56 mg/kg/injection, schedule: Q01DX009 (ip), vehicle: other) was 120 % of control, the T/C (dose: 3.13 mg/kg/injection, schedule: Q01DX009 (ip), vehicle: other) was 123 % of control and the T/C (dose: 37.5 mg/kg/injection, schedule: Q04DX003 (ip), vehicle: other) was 121 % of control. The T/C (dose: 75.0 mg/kg/injection, schedule: Q04DX003 (ip), vehicle: other) was 94 % of control and the T/C (dose: 150.0 mg/kg/injection, schedule: Q04DX003 (ip), vehicle: other) was 99 % of control.

With `CC(=O)OCC(=O)[C@@]1(O)CC[C@H]2[C@@H]3CCC4=CC(=O)[C@H](C)C[C@]4(C)[C@H]3[C@@H](O)C[C@@]21C` the T/C (dose: 100.0 mg/kg/injection, schedule: Q04DX003 (ip), vehicle: other) was 100 % of control, the T/C (dose: 200.0 mg/kg/injection, schedule: Q04DX003 (ip), vehicle: other) was 100 % of control and the T/C (dose: 400.0 mg/kg/injection, schedule: Q04DX003 (ip), vehicle: other) was 115 % of control.

For `COC(=O)C1=CCC23CC[C@H](C(C)(/C=C/C=C(\C)C(=O)O)OC2=O)[C@]3(O)CC1` (some centres undefined), the T/C (dose: 3.88 mg/kg/injection, schedule: Q01DX005 (ip), vehicle: sodium bicarbonate) was 87 % of control, the T/C (dose: 7.75 mg/kg/injection, schedule: Q01DX005 (ip), vehicle: sodium bicarbonate) was 100 % of control and the T/C (dose: 15.5 mg/kg/injection, schedule: Q01DX005 (ip), vehicle: sodium bicarbonate) was 103 % of control. The T/C (dose: 31.0 mg/kg/injection, schedule: Q01DX005 (ip), vehicle: sodium bicarbonate) was 108 % of control.

For `CCC(c1ccc(O)cc1)c1cc2c(cc1OC)OCO2` (centres undefined), the T/C (dose: 50.0 mg/kg/injection, schedule: Q01DX005 (ip), vehicle: distilled water + Tween-80) was 101 % of control, the T/C (dose: 100.0 mg/kg/injection, schedule: Q01DX005 (ip), vehicle: distilled water + Tween-80) was 96 % of control and the T/C (dose: 200.0 mg/kg/injection, schedule: Q01DX005 (ip), vehicle: distilled water + Tween-80) was 96 % of control.

For `C[C@H]1C[C@](C)(CO)Oc2oc3ccccc3c(=O)c21`, the T/C [3] was 108 % of control, the T/C [4] was 109 % of control and the T/C [5] was 111 % of control.

`S=c1n(-c2ccc(Cl)cc2)c2nc3ccccc3nc(/c2=N\Nc2ccccc2)n1-c1ccc(Br)cc1` was tested, and the T/C (dose: 50.0 mg/kg/injection, schedule: Q01DX005 (ip), vehicle: saline with Tween-80) was 92 % of control, the T/C (dose: 100.0 mg/kg/injection, schedule: Q01DX005 (ip), vehicle: saline with Tween-80) was 105 % of control and the T/C (dose: 200.0 mg/kg/injection, schedule: Q01DX005 (ip), vehicle: saline with Tween-80) was 105 % of control.

In the case of `CN=C(NC)c1ccc(NC(=O)c2cc(Cl)cc(C(=O)Nc3ccc(C(=NC)NC)cc3)c2)cc1`, the T/C (dose: 6.25 mg/kg/injection, schedule: Q01DX005 (ip), vehicle: saline) was 98 % of control, the T/C (dose: 12.5 mg/kg/injection, schedule: Q01DX005 (ip), vehicle: saline) was 113 % of control and the T/C (dose: 25.0 mg/kg/injection, schedule: Q01DX005 (ip), vehicle: saline) was 118 % of control.

With `COc1ccc(C(=O)c2cc3c(ccc4ccccc43)oc2=O)cc1` the T/C (dose: 6.25 mg/kg/injection, schedule: Q01DX009 (ip), vehicle: saline) was 98 % of control, the T/C (dose: 12.5 mg/kg/injection, schedule: Q01DX009 (ip), vehicle: saline) was 96 % of control and the T/C (dose: 25.0 mg/kg/injection, schedule: Q01DX009 (ip), vehicle: saline) was 90 % of control.

In the case of `Nc1nc(F)nc2c1ncn2C1OC(COP(=O)(O)O)C(O)C1O` (centres undefined), the T/C (dose: 12.5 mg/kg/injection, schedule: Q01DX009 (ip), vehicle: Klucel (hydroxypropylcellulose) (HPC)) was 110 % of control, the T/C (dose: 25.0 mg/kg/injection, schedule: Q01DX009 (ip), vehicle: Klucel (hydroxypropylcellulose) (HPC)) was 117 % of control and the T/C (dose: 50.0 mg/kg/injection, schedule: Q01DX009 (ip), vehicle: Klucel (hydroxypropylcellulose) (HPC)) was 120 % of control. For the same molecule, the T/C [1] was 100 % of control, the T/C [6] was 153 % of control and 165 % of control and the T/C [2] was 107 % of control. The T/C (dose: 175.0 mg/kg/injection, schedule: Q01DX009 (ip), vehicle: saline) was 203 % of control and 213 % of control, the T/C [7] was 111 % of control and 215 % of control and the T/C (dose: 200.0 mg/kg/injection, schedule: Q01DX009 (ip), vehicle: saline) was 222 % of control and 224 % of control. For the same molecule, the T/C (dose: 200.0 mg/kg/injection, schedule: Q04DX002 (ip), vehicle: saline) was 111 % of control and 117 % of control, the T/C (dose: 225.0 mg/kg/injection, schedule: Q01DX009 (ip), vehicle: saline) was 230 % of control and 233 % of control and the T/C (dose: 250.0 mg/kg/injection, schedule: Q01DX009 (ip), vehicle: saline) was 236 % of control and 241 % of control. For the same molecule, the T/C (dose: 400.0 mg/kg/injection, schedule: Q04DX002 (ip), vehicle: saline) was 123 % of control, the T/C (dose: 1500.0 mg/kg/injection, schedule: Q01DX001 (ip), vehicle: saline) was 155 % of control and the T/C (dose: 1600.0 mg/kg/injection, schedule: Q04DX002 (ip), vehicle: saline) was 182 % of control.

`O=C(CC1(O)C(=O)Nc2ccccc21)c1cccc2ccccc12` (centres undefined) was tested, and the T/C [3] was 110 % of control, the T/C [4] was 113 % of control and the T/C [5] was 103 % of control.

With `CC1CCCC(C2CC3CCCCC3C(N)[N-]2)[N-]1.O=[N+]([O-])O.O=[N+]([O-])O.[Cu+2]` (centres undefined) the T/C (dose: 6.25 mg/kg/injection, schedule: Q04DX002 (ip), vehicle: suspension in saline) was 93 % of control and the T/C (dose: 12.5 mg/kg/injection, schedule: Q04DX002 (ip), vehicle: suspension in saline) was 110 % of control.

In the case of `C/C(=N\NC(=S)/N=c1\sccn1Cc1ccccc1)c1ccccn1`, the T/C (dose: 6.25 mg/kg/injection, schedule: Q01DX005 (ip), vehicle: saline with Tween-80) was 117 % of control and 123 % of control.

For `CCCCCCCCCCCCCCCCS(=O)(=O)c1ccc(S(=O)(=O)F)cc1NC(C)=O`, the T/C (dose: 50.0 mg/kg/injection, schedule: Q04DX003 (ip), vehicle: saline sonified) was 104 % of control, the T/C (dose: 100.0 mg/kg/injection, schedule: Q04DX003 (ip), vehicle: saline sonified) was 95 % of control and the T/C (dose: 200.0 mg/kg/injection, schedule: Q04DX003 (ip), vehicle: saline sonified) was 100 % of control.

In the case of `Nc1ccc(-c2csc(COc3ccccc3)n2)cc1`, the T/C [6] was 106 % of control and the T/C [7] was 103 % of control.
